Source: patent publication US7303895B1 (priority 1999, dated 2007)

How the values were obtained:
Format in all cases: cell-based
[1] = molecular target: T1, mutant yeast transformed by 4.17 (truncated tCTL1) (Torpedo marmorata, UniProt Q9I9B9, G501V); assay: saturable [3H]choline absorption by mutant yeast transformed with clone 4.17; conditions: 1 μM HC-3, 30° C., 30 minutes
T1 construct: the suppressor, 4.17, whose first ATG corresponds to M471 of tCTLI; expressed in transfected cells; host or cells: Saccharomyces cerevisiae ctr ise URA3 mutant strain, plasmid pFL61
T1 sequence (Q9I9B9 471-646 G501V): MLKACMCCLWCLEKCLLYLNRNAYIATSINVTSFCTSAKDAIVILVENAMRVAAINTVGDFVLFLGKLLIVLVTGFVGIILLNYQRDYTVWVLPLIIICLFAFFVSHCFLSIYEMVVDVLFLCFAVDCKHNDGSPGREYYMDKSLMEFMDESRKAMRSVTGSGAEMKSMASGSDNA
Experimental: The transformed yeast was incubated at 30° C. for 30 minutes with 25 nM [3H]-choline.
The plasmids were isolated from colonies having a strong choline-dependent growth phenotype, and they were used to transform aliquot fractions of mutant yeast in order to eliminate the ctr reverse mutants and the yeast suppressor mutations.
The culture density was normalized by measuring the OD600.

CTL1 in glioma cell C6 = molecular target: T2, CTL1 in glioma cell C6 (Rattus norvegicus, UniProt Q8VII6, K645E/R267S); assay: total absorption of choline by glioma C6 cells transiently transfected with CTL1pcDNA3; conditions: hemicholinium-3; 48 hours after transfection; only C6-CTL1pcDNA3 cells, not empty-plasmid cells
T2 construct: expressed in transfected cells; host or cells: glioma C6 cells, transient transfection, vector pcDNA3
T2 sequence (Q8VII6 1-653 isoform Q8VII6-2 R267S/K645E): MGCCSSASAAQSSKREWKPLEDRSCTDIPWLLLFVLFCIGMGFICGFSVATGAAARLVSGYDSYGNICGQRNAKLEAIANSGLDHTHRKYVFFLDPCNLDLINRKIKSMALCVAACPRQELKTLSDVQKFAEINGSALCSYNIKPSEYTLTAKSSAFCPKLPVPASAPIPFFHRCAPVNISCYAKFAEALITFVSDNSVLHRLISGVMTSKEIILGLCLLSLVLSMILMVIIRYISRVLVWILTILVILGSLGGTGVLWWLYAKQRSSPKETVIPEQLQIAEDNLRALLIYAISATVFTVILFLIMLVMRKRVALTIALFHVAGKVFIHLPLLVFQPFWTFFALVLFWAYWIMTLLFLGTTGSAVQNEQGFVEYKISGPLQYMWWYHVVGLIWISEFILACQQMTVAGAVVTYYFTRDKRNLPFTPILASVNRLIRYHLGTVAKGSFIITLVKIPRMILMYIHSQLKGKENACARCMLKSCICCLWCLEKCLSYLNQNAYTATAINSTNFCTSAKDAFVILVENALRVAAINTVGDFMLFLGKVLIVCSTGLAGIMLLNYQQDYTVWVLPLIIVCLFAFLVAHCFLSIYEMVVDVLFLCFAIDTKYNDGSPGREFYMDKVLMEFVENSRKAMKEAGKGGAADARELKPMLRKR
Excerpt: FIGS. 8A-8C: Transient transfection of glioma cell C6 with the vector CTL1pcDNA3 described in FIG. 6.

N18 cells = assay: capture of tritiated choline by N18 cells transiently transfected with rCTL1a/pcDNA3, rCTL1b/pcDNA3 or pcDNA3; conditions: 10 μM of the substance; 24 hours after transfection; same in all three transfections (rCTL1a, rCTL1b, empty pcDNA3); result not shown

Compound: C[N+]1(C)CCOC(O)(c2ccc(-c3ccc(C4(O)C[N+](C)(C)CCO4)cc3)cc2)C1.[Br-].[Br-] (stereo not drawn) [HC-3, hemicholinium-3]
- saturable [3H]choline absorption by the yeast transformed in 4.17 [1]: inhibited
- inhibition of total absorption of choline (CTL1 in glioma cell C6): inhibition
- inhibition of capture of tritiated choline (N18 cells): about 50%
